Measured values taken from PMC12421961, “PmeR, a TetR-like transcriptional regulator, is involved in both auxin signaling and virulence in the plant pathogen Pseudomonas syringae strain PtoDC3000” (mBio, 2025).

Tests used:
[1] = molecular target: T1, PmeR (Pseudomonas syringae group genomosp. 3, UniProt Q87X86); assay: EMSA, release of PmeR from […]-labelled operator DNA; assay type: binding; conditions: 6.25 nM PmeR, 1.5 nM pmeR-mexA intergenic DNA probe, pH 8.0, 25 °C; lowest complete-release concentration in a dilution series, not a Kd or IC50
T1 construct: gene PSPTO_4302; full-length coding region (672 bp), N-terminal His tag, pET-28a, E. coli BL21(DE3), codon-optimized; nickel column; tag removal not mentioned

[2] = molecular target: T2, PmeR (TetR-like regulator) (Pseudomonas syringae strain PtoDC3000) (UniProt Q87X86); assay: competition; conditions: 25 mM Tris-acetate pH 8.0, 8 mM Mg-acetate, 10 mM KCl, 1 mM DTT, 460 uM HCl ([…]
T2 sequence: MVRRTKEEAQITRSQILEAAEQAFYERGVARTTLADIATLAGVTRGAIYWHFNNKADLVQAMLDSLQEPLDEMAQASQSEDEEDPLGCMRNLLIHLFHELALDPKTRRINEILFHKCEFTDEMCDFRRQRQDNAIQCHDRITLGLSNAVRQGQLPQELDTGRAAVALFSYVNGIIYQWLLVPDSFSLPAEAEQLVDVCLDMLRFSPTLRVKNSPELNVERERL

For N[C@@H](CCCCNC(=O)Cc1c[nH]c2ccccc12)C(=O)O [IAA-Lys], the “concentration sufficient for complete shift to unbound DNA” value [1] was 750 µM.
In the case of “CGGAATTCGGTGCGACGAACCATGGCAATAAGACCTCAAAAGATTCACCTCATGCGTGCATCTGGTGCATGCCTTGAGGTATGACCGGGCGGCATTTGTCTCGCCTTGTCCCGAACTGGCATTCAGCACCTTGAATAGTGGCCGAATGCGCAAAGCGGGTGTTTACAAACAACCGCGAATGTAAGTATATTCCTTAGCATGCTACTTATCTAGCCGAAATATTTTTTAACACTTCAACGTACTGTTGAGAAAACAGGCTCCTGCCCCGAGGATCTTCGGTACCCC (double strand) [pmeR-mexA intergenic region probe]”, the binding [2] is reported as “binds”.
